Data as given in ChEMBL document CHEMBL1139828, “Synthesis of 2,3-diaryl-1,3-thiazolidine-4-one derivatives as selective cyclooxygenase (COX-2) inhibitors” (Bioorg Med Chem Lett, 2007).
pIC50: −log10 of the molar value.

Legend:
[1] = biological target: Prostaglandin G/H synthase 1 (Homo sapiens, UniProt P23219)
[2] = biological target: T1, Prostaglandin G/H synthase 2 (Homo sapiens, UniProt P35354)
T1 sequence (P35354 whole entry): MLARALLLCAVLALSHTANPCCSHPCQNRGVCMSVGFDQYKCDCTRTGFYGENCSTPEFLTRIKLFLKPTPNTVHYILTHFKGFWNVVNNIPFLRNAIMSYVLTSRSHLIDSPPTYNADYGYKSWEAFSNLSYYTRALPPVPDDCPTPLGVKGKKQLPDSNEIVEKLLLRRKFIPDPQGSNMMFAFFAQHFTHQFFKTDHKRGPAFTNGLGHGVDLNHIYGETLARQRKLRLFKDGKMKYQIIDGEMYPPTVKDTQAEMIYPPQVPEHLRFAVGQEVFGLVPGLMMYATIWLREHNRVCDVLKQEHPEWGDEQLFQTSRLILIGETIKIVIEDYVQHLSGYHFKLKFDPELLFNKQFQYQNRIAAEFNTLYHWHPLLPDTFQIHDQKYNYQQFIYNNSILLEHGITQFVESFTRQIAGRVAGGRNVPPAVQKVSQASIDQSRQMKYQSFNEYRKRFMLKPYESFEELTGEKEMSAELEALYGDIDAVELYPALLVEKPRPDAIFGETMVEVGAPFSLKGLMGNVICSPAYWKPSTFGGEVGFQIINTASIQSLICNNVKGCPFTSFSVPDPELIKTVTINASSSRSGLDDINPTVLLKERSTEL

Homo sapiens = organism: Homo sapiens; test: Selectivity index, ratio of IC50 for […]

Prostaglandin G/H synthase 1, sequence (P23219 whole entry): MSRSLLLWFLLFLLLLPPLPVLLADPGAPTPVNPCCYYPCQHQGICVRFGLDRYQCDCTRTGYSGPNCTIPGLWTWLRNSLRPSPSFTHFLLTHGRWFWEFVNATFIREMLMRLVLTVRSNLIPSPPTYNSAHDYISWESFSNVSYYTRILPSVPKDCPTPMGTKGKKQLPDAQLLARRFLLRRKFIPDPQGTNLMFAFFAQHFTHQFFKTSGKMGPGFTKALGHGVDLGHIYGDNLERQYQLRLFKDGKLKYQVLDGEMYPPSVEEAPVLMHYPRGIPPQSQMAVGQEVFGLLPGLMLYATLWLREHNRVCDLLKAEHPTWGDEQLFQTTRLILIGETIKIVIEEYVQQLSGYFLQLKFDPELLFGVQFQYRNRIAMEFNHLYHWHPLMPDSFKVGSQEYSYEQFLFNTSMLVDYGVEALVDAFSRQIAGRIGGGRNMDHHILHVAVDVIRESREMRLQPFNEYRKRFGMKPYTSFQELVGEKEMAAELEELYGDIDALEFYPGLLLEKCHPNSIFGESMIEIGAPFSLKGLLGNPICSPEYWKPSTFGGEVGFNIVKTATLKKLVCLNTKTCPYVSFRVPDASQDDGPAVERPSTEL

pIC50 [1]	pIC50 [2]	Ratio IC50 (Homo sapiens)	Structure (SMILES)
4.27	6.82	359	Cc1ccc(N2C(=O)CSC2c2ccc(S(C)(=O)=O)cc2)cc1 (configuration not stated)
< 4.00	6.80	> 625	COc1ccc(N2C(=O)CSC2c2ccc(S(C)(=O)=O)cc2)cc1 (configuration not stated)
4.02	6.70	480	CS(=O)(=O)c1ccc(C2SCC(=O)N2c2ccccc2)cc1 (configuration not stated)

Structure (SMILES)	pIC50 [1]	pIC50 [2]	Ratio IC50 (Homo sapiens)
CS(=O)(=O)c1ccc(C2SCC(=O)N2c2ccc(F)cc2)cc1 (configuration not stated)	< 4.00	6.92	> 833
